Assay results taken from patent publication US20250353867A1, “Substituted Pyridine-2,6-Bis(Phenylenephenolate) Complexes with Enhanced Solubility that are Useful as Catalyst Components for Olefin Polymerization” (EXXONMOBIL CHEMICAL PATENTS INC., priority 2022, published 2025).
“And” between values parts separate entries of the source, which are not always exact repeats. Equal entries are not always repeated. Values belong to the compound of their own block, whether it stands above or below them.

Experiments:
[1] = Solubility of complexes in isohexane at room temperature; type: physicochemical; conditions: room temperature (20° C.-25° C.); for Solubility in isohexane: cocrystallized solvent included in formula weight; for Solubility in isohexane (wt %): cocrystallized solvent included in mass
Description: General considerations: Solubility studies were performed using complexes that were isolated as crystalline or microcrystalline solids. […] Complex 3, embodying the present technological advancement, was cocrystallized with 0.6 equivalents of isohexane. Complex 4, embodying the present technological advancement, was cocrystallized with 0.5 equivalents of isohexane. Solvents used were sparged with nitrogen (30-60 minutes) and dried over 3 angstrom molecular sieves. Unless stated otherwise all measurements were performed at ambient temperature (20° C.-25° C.).
General procedure: A tared vial was loaded with a small amount of the complex (actual mass recorded, typically 5-30 mg). Then a small stir bar (8 mm) was added. Solvent was then added and the mixture was stirred rapidly (1000 rpm). […] This process was repeated until either a clear solution was obtained (no visible solids or murkiness) or the vial was full. As the mixture approached homogeneity (i.e., few remaining solids observed) the volume of the solvent additions was kept small (<1 mL) to minimize the overshooting of the solvent required to achieve homogeneity. The stir bar was then removed and the mass of the mixture was measured. If a clear solution had formed then the solubility of the complex was calculated based on the mass of complex and the amount of solvent added to achieve a homogeneous solution. If the mixture remained heterogeneous (visible solids or murky), then the value reported is given as being “less than” the calculated value. Formulas used to calculate solubility are listed below. Cocrystallized solvent is included in the mass and formula weights of the complexes. The density of isohexane used in the calculations was 0.672 g/ml, and the density of the complex was assumed to be 1.0 g/ml.
Solubility (in wt %)=[100]*[(weight of complex)/(weight of solution)]
Solubility (in mM)=[10^6]*[(grams of complex)/(formula wt. of complex in g/mol)]/[(grams of solvent)/(density of solvent in g/mL)]

[2] = Propylene polymerization, catalyst activity
Source text: Solutions of the pre-catalysts were made using toluene (ExxonMobil Chemical-anhydrous, stored under N2) (98%) or isohexane (ExxonMobil Chemical—polymerization grade, and purified as described below). Pre-catalyst solutions were typically 0.25 mmol/L.
Activation of the pre-catalysts was either by dimethylanilinium tetrakisperfluorophenylborate (Boulder Scientific or Albemarle Corp; Act ID=A) or (hydrogenated tallow alkyl)methylammonium tetrakis(pentafluorophenyl)borate supplied as a 10 wt % solution in methylcyclohexane (Boulder Scientific; Act ID=B). Activators were typically used as a 0.25 mmol/L solution in toluene or isohexane.
Tri-n-octylaluminum (TnOAl or TNOA, Neat, AkzoNobel) was also used as a scavenger prior to introduction of the activator and pre-catalyst into the reactor. TNOA was typically used as a 5 mmol/L solution in toluene or isohexane.
Polymerizations were conducted in an inert atmosphere (N2) drybox using autoclaves equipped with an external heater for temperature control, glass inserts (internal volume of 22.5 mL), septum inlets, regulated supply of nitrogen and propylene, and equipped with disposable PEEK mechanical stirrers (800 RPM). The autoclaves were prepared by purging with dry nitrogen at 110° C. or 115° C. for 5 hours and then at 25° C. for 5 hours.
The reactor was prepared as described above, then heated to 40° C., and then purged with propylene gas at atmospheric pressure. Toluene or isohexanes, liquid propylene (1.0 mL) and scavenger (TNOA, 0.5 μmol) were added via syringe. The reactor was then brought to process temperature (70° C. or 100° C.) while stirring at 800 RPM. The activator solution, followed by the pre-catalyst solution, were injected via syringe to the reactor at process conditions. Reactor temperature was monitored and typically maintained within +/−1° C. Polymerizations were halted by addition of approximately 50 psi compressed dry air gas mixture to the autoclaves for approximately 30 seconds. The polymerizations were quenched based on a predetermined pressure loss (maximum quench value) or for a maximum of 30 minutes. The reactors were cooled and vented. The polymers were isolated after the solvent was removed in-vacuo. The actual quench time (s) is reported as quench time (s). Yields reported include total weight of polymer and residual catalyst. […] Propylene homopolymerization examples are reported in Table 2 with additional characterization in Table 3.
Polymerization results are collected in Tables 2. “Ex #” stands for example number. Example numbers starting with a “C” are comparative examples. “Cat ID” identifies the pre-catalyst used in the experiment. Corresponding numbers identifying the pre-catalyst (also referred to as pre-catalyst, catalyst, complex or compound) are located in the synthetic experimental section. T (° C.) is the polymerization temperature which was typically maintained within +/−1° C. “Yield” is polymer yield, and is not corrected for catalyst residue. “Quench time (s)” is the actual duration of the polymerization run in seconds. For propylene homopolymerization runs, quench value indicates the maximum set pressure loss (conversion) of propylene during the polymerization. Activity is reported at grams polymer per mmol of catalyst per hour.
Activator A is N,N-dimethylanilinium tetrakis(pentafluorophenyl)borate activator and activator B is (hydrogenated tallow alkyl)methylammonium tetrakis(pentafluorophenyl)borate. When activator A was used, both the pre-catalyst and activator solutions were in toluene. When activator B was used, both pre-catalyst and activator solutions were in isohexane. Small amounts of methylcyclohexane (MCH) result from activator B being supplied by the manufacturer as a 10 wt % solution in methylcyclohexane.

[3] = Activator B ((hydrogenated tallow alkyl)methylammonium tetrakis(pentafluorophenyl)borate), T 100 °C, solutions in isohexane, no toluene
[4] = Activator B ((hydrogenated tallow alkyl)methylammonium tetrakis(pentafluorophenyl)borate), T 70 °C, solutions in isohexane, no toluene

Solubility in isohexane [1]: 1.10 mM | Solubility in isohexane (wt %) [1]: 0.168 wt %
Compound: CCCCOc1ccc2c(c1)-c1cc(C)cc(C34CC5CC(CC(C5)C3)C4)c1[O][Zr]([CH3])([CH3])[O]c1c(cc(C)cc1C13CC4CC(CC(C4)C1)C3)-c1cc(OCCCC)ccc1-c1cccc-2n1 [Complex 3]

Compound: CCCCOc1ccc2c(c1)-c1cc(C(C)(C)C)cc(C34CC5CC(CC(C5)C3)C4)c1[O][Zr]([CH3])([CH3])[O]c1c(cc(C(C)(C)C)cc1C13CC4CC(CC(C4)C1)C3)-c1cc(OCCCC)ccc1-c1cccc-2n1 [Complex 4]
Solubility in isohexane [1]: 15.7 mM | Solubility in isohexane (wt %) [1]: 2.55 wt % | Activity (g P/mmol cat · hr) [2, 3]: 2,448,000 g P/mmol cat · hr and 2,638,800 g P/mmol cat · hr and 1,007,059 g P/mmol cat · hr

Compound: CCCCCCCCOc1ccc2c(c1)-c1cc(C(C)(C)C)cc(C34CC5CC(CC(C5)C3)C4)c1[O][Zr]([CH3])([CH3])[O]c1c(cc(C(C)(C)C)cc1C13CC4CC(CC(C4)C1)C3)-c1cc(OCCCCCCCC)ccc1-c1cccc-2n1 [Complex 5]
Activity (g P/mmol cat · hr) ([2]; Activator A (N,N-dimethylanilinium tetrakis(pentafluorophenyl)borate), T 100 °C, catalyst and activator solutions in toluene): 3,376,421 g P/mmol cat · hr and 2,318,545 g P/mmol cat · hr and 2,591,040 g P/mmol cat · hr | Activity (g P/mmol cat · hr) [2, 4]: 6,656,571 g P/mmol cat · hr and 5,844,800 g P/mmol cat · hr and 5,664,000 g P/mmol cat · hr | Activity (g P/mmol cat · hr) [2, 3]: 2,700,444 g P/mmol cat · hr and 1,772,923 g P/mmol cat · hr and 2,571,840 g P/mmol cat · hr

Compound: CCCCCCCCCCCCOc1ccc2c(c1)-c1cc(C(C)(C)C)cc(C34CC5CC(CC(C5)C3)C4)c1[O][Zr]([CH3])([CH3])[O]c1c(cc(C(C)(C)C)cc1C13CC4CC(CC(C4)C1)C3)-c1cc(OCCCCCCCCCCCC)ccc1-c1cccc-2n1 [Complex 6]
Activity (g P/mmol cat · hr) [2, 4]: 1,713,412 g P/mmol cat · hr and 1,940,093 g P/mmol cat · hr and 1,864,216 g P/mmol cat · hr

Compound: dimethylzirconium[2′,2′″-(pyridine-2,6-diyl)bis(3-adamantan-1-yl)-5-(tert-butyl)-[1,1′-biphenyl]-2-olate)] [Complex 2, reference compound]
Activity (g P/mmol cat · hr) [2, 4]: 2,069,268 g P/mmol cat · hr and 4,201,200 g P/mmol cat · hr and 3,074,182 g P/mmol cat · hr | Activity (g P/mmol cat · hr) [2, 3]: 2,345,000 g P/mmol cat · hr and 2,682,545 g P/mmol cat · hr and 2,225,032 g P/mmol cat · hr
